{
  "source": "paper PMC12052742",
  "about": "“Engineering a newly identified alcohol dehydrogenase from Sphingobium Sp. for efficient utilization of nicotinamide cofactors biomimetics” (Bioresources and Bioprocessing, 2025)",
  "assay_type_in_all_cases": "biochemical, Sphingobium sp. SYK-6",
  "key": {"SpADH2 variant A290I [1]": {"test_system": "SpADH2 variant A290I", "assay": "Cofactor spectrum (HPLC specific activity), variant A290I", "conditions": "1a 5 mM, cofactor 7.5 mM, pH 7.5, 30℃, 5 µg enzyme, 1 h", "method": "Fig. 8 Cofactor spectrums of SpADH2 and its variants. The darkness of color for each cofactor stands for the activity. For each cofactor cube, top left: WT, top right: H43L, bottom left: A290I, bottom right: H43L/A290I. (a) Natural cofactors and NMN^+ are shown in purple. (b) tsNCBs are shown in cyan. The evaluation of cofactor spectrum was carried out under following conditions: 50 mM PBS buffer (pH 7.5) and 30℃, with 1a (5 mM) as substrate and different cofactors (7.5 mM) as cofactor. For NAD(P)^+ and NMN^+, 0.05 µg enzyme was added, and for tsNCBs, 5 µg enzyme was added. The results were analyzed by HPLC after 1 h reaction\nSpecific activity of SpADH2 in cofactor spectrum study was determined by HPLC analysis. PBS (pH 7.5) buffer was pre-heated at 30°C for 15 min. For NAD(P)^+ and NMN^+, 0.05 µg SpADH2 was added to PBS buffer (100 µL). For tsNCBs, 5 µg SpADH2 was added. A final concentration of 7.5 mM cofactor was added to the reaction mixture. Finally, a final concentration of 5 mM substrate was added to start the reaction. The reactions were conducted at 30°C.\nOne unit of enzyme activity is defined as the amount of enzyme required to form 1 µmol 1b per minute at pH 7.5 and 30°C. Same reaction without cofactor was used as a blank control."}, "SpADH2 variant H43L": {"test_system": "SpADH2 variant H43L", "assay": "Substrate kinetic assay, H43L", "method": "(§1) Specific activity of SpADH2 in substrate spectrum study was measured spectrophotometrically. PBS (pH 7.5) buffer was pre-heated at 30°C for 15 min. For NAD^+, 0.05 µg SpADH2 was added to the PBS buffer (100 µL), and a final concentration of 2 mM NAD^+ was added. For tsNCBs cofactor p-BANA^+, 5 µg SpADH2 and a final concentration of 7.5 mM p-BANA^+ was added. The mixture was carried out in a 96-well microplate, and a final concentration of 5 mM substrate was added to start the reaction. The microplate was incubated in 30°C for 1 h. Florescent probes (2-[2-(1,4-dihydro-1-methyl-3-quinolinyl)ethenyl]-1,3,3-trimethyl-3H-indolium) in a final concentration of 0.2 mM (100 µL) was added (Scheme S1), and the microplate was placed in a microplate reader immediately for measurement under 537 nm (Fomin et al. [2016]).\n(§2) Kinetic analysis of SpADH2 and its variants were carried out following Michaelis-Menten equation or Michaelis-Menten excess substrate inhibition equation. For of the substrate kinetic assays, concentrations of cofactors were fixed at 5 mM for NAD^+ and 7.5 mM for p-BANA^+. For cofactor kinetic assays, the concentration of 1a was fixed at 5 mM.\n(§3) Specific activity was determined spectrophotometrically as above except that gradient 1a (0−20 mM) or cofactor (0−35 mM) concentrations were applied.\n(§4) Cofactor specificity ratio (CSR) represents the ratio of catalytic efficiency of p-BANA^+ to NAD^+ for each enzyme, and relative specificity (RS) stands for the CSR ratio of variants to WT (King et al. [2020])."}, "SpADH2 variant A290I [2]": {"test_system": "SpADH2 variant A290I", "assay": "Substrate kinetic assay, A290I", "method": "as §1, §2, §3, §4"}, "[3]": {"test_system": "SpADH2 variant H43L/A290I", "assay": "Cofactor kinetic assay, H43L/A290I", "method": "as §1, §2, §3, §4"}, "SpADH2 variant A290V": {"test_system": "SpADH2 variant A290V", "assay": "Activity of variant in oxidation of syringyl alcohol with p-BANA^+ (Fig. 5), A290V", "conditions": "cofactor p-BANA^+, substrate syringyl alcohol", "method": "(§5) In the first round of screening, saturation mutagenesis was constructed for six positions (W114, T177, G172, G316, A47, and R227). […] Therefore, in the second round of mutagenesis, six additional sites within the 5 Å range of the cofactor ribose (H43, V202, T265, V288, G289, and A290) were selected for saturation mutagenesis screening (Fig. 6c and Fig. S6). Three beneficial mutations were identified. […] Subsequently, combinatorial mutagenesis was performed, resulting in 11 double variants and 3 triple variants.\n(§6) Fig. 5 Relative activity of SpADH2 and its variants in oxidation of syringyl alcohol when utilizing p-BANA^+ as cofactor\n(§7) In preliminary screening by spectrophotometric analysis, PBS (pH 7.5) buffer (50 µL) in a 96-well plate was pre-warmed at 30°C for 15 min, and a final concentration of 5 mM p-BANA^+ and 1 mM substrate syringyl alcohol were added, and 50 µL of crude enzyme were add to each well to start the reaction, with WT as control. The reaction mixture was incubated at 30°C for 1 h, followed by addition of fluorescent probes in a final concentration of 0.2 mM, and was subjected to determination under 537 nm as described above."}, "SpADH2 variant A290I [4]": {"test_system": "SpADH2 variant A290I", "assay": "Activity of variant in oxidation of syringyl alcohol with p-BANA^+ (Fig. 5), A290I", "conditions": "cofactor p-BANA^+, substrate syringyl alcohol", "method": "as §5, §6, §7"}, "[5]": {"conditions": "1a varied, cofactor (= label) fixed: 5 mM NAD^+ or 7.5 mM p-BANA^+"}, "[6]": {"conditions": "substrate kinetics, cofactor = label"}},
  "data": [
    {"smiles": "NC(=O)c1ccc[n+](Cc2ccc(C(=O)O)cc2)c1", "note": "[p-BANA^+, para-3-carbamoyl-1-(4-carboxybenzyl)pyridin-1-ium]", "values": [
      {"measurement": "catalytic activity with the tsNCB as cofactor", "setting": "SpADH2 variant A290I [1]", "value": 160.82, "unit": "U/g"},
      {"measurement": "kcat", "setting": "SpADH2 variant H43L; [5]", "value": "2.5 ± 0.9", "unit": "min^− 1"},
      {"measurement": "Cofactor specificity ratio (catalytic efficiency of p-BANA^+ to NAD^+)", "setting": "SpADH2 variant H43L; substrate kinetics", "value": "9.30×10^-4"},
      {"measurement": "Relative specificity (CSR ratio of variant to WT)", "setting": "SpADH2 variant H43L; substrate kinetics", "value": 61.2},
      {"measurement": "fold increase in kcat vs WT", "setting": "SpADH2 variant H43L; [6]", "value": 2, "unit": "fold"},
      {"measurement": "kcat", "setting": "SpADH2 variant A290I [2]; [5]", "value": "11 ± 4.1", "unit": "min^− 1"},
      {"measurement": "Cofactor specificity ratio (catalytic efficiency of p-BANA^+ to NAD^+)", "setting": "SpADH2 variant A290I [2]; substrate kinetics", "value": "2.95×10^-4"},
      {"measurement": "Relative specificity (CSR ratio of variant to WT)", "setting": "SpADH2 variant A290I [2]; substrate kinetics", "value": 19.4},
      {"measurement": "fold increase in kcat vs WT", "setting": "SpADH2 variant A290I [2]; [6]", "value": 10, "unit": "fold"},
      {"measurement": "kcat", "setting": "[3]; cofactor (= label) varied, 1a fixed at 5 mM", "value": "8.7 ± 1.3", "unit": "min^− 1"},
      {"measurement": "Km", "setting": "[3]; cofactor (= label) varied, 1a fixed at 5 mM, pH 7.5, 30°C", "value": "13 ± 2.7", "unit": "mM"},
      {"measurement": "Ki", "setting": "[3]; cofactor (= label) varied, 1a fixed at 5 mM, read-out: Ki (cofactor inhibition)", "value": "15 ± 3.5", "unit": "mM"},
      {"measurement": "Cofactor specificity ratio (catalytic efficiency of p-BANA^+ to NAD^+)", "setting": "[3]; cofactor kinetics", "value": "1.94×10^-2"},
      {"measurement": "Relative specificity (CSR ratio of variant to WT)", "setting": "[3]; cofactor kinetics", "value": 509},
      {"measurement": "fold increase in activity vs WT", "setting": "SpADH2 variant A290V", "value": 3, "unit": "fold"},
      {"measurement": "fold increase in activity vs WT", "setting": "SpADH2 variant A290I [4]", "value": 10, "unit": "fold"}
    ]}
  ]
}
